Results on two compounds are retold here after patent publication US20100183600A1, “RAF Inhibitors and Their Uses” (ARQULE, INC., priority 2008, published 2010).

In data set [1] the target is T1, mutant B-RAF (Homo sapiens, UniProt P15056, V600E).
T1 construct: purchased Upstate (Charlottesville, Va.)
As to the kind of experiment: Measurement of RAF activity (MEK-1 phosphorylation). It counts as biochemical. To be noted: 50 μM ATP, MEK-1 substrate; read-out: Mut-B-Raf IC50. As for the experimental part: Materials: The RAF kinases and the anti-phospho MEK1/2 antibody were from Upstate (Charlottesville, Va.). The RAF substrate used was full length N-terminal GST-MEK-1, which was expressed in E. coli and purified in-house by HPLC. All proteins were aliquoted and stored at −80° C. Superblock™ in phosphate buffered saline (PBS) blocking reagent was form Pierce (cat. #37515). ATP was from Roche (cat. # 19035722). Alkaline Phosphatase-tagged goat anti-rabbit antibody was from Pierce (cat. # 31340).
Methods: All RAF biochemical assays were performed using an assay buffer containing 20 mM MOPS, 5 mM EGTA, 37.5 mM MgCl2, 1 mM DTT and 50 μM ATP. There was 6.25 ng/well mutant B-RAF and 7.5 ng/well MEK-1 in the final assay conditions. Compounds were serially diluted in assay buffer containing 1% DMSO and 20 μl of test compound at a concentration 3-fold more than the final concentration, and were added to a polypropylene V-well reaction plate. Vehicle control wells received buffer only with DMSO at equivalent concentrations to the test wells. […] These reaction plates were incubated at room temperature for 30 minutes. Capture of MEK-1 was initiated by transferring 50 μl of the reaction mixture to a Nunc Maxisorp™ microplate that is designed for non-specific protein capture. After 30 minute capture of MEK-1 at room temperature, this plate was washed with TBST (6×200 μL/well) to fully terminate the reaction. The plate was then blocked for 1 hour by the addition of 100 μl/well of Superblock™ in phosphate buffered saline (PBS) blocking reagent. Plate was again washed with TBST (6 times with 200 μl/well), followed by the addition of 70 μl/well of Upstate anti-phospho MEK ½ diluted 1:1000 in Pierce Superblock (PBS). After a 60 minute incubation, this plate was washed with TBST (6 times with 200 μl/well), and 70 μl of the secondary antibody (Pierce Alkaline Phosphatase tagged goat anti-rabbit) prepared at 1:4000 in Superblock, were added. After a 45 minute incubation at room temperature, the wells of the microplate were washed with TBST (6 times with 200 μl/well), and thereafter 100 μl/well of Attophos™ fluorescent alkaline phosphatase substrate was added according to the manufacturer's instructions (JBL Scientific). Fluorescence was read on a Perkin Elmer Envision multilabel reader, using the following filters: Excitation Filter: CFP430 nM, Emission Filter: Emission Filter 579 nM.

The test system of data set [2] is human tumors (A375). Put plainly: Xenograft model in athymic mice. The format is in vivo, mouse. The protocol:
Compound 17 was injected intra-peritoneally (IP) at 160 mg/kg and compound 19 was injected IP at 300 mg/kg (equivalent dose if expressed in mmole/kg, taking into account salt components).
A mouse xenograft model was performed according to the method of Jacob et al, Gene Ther Mol Biol 2004; 8:213-219 and Wilhelm et al, Cancer Research 2004; 64: 7099-7109.
Animal Care. Six week old female NCr nu/nu mice were purchased from Taconic Farms, Germantown, N.Y. and allowed to acclimate 1-2 weeks. Mice were housed in sterile micro isolator cages, 5 mice per cage and receive food and water ad libitum. All experimental procedures and surgical manipulations were approved in accordance with ArQule's Institutional Animal Care and Use Committee (IACUC).
Tumor Cell Lines and Model. Carcinoma cell lines were obtained from and propagated as recommended by American Type Tissue Culture (ATCC), (Manassas, Va.). Mice were implanted subcutaneously with 2.5-10×10^6 cells in 0.1 ml sterile Hanks Balanced Salt Solution (HBSS) in the upper right flank area. […] Tumor weight (mg) was calculated from the equation length×(width)^2)/2; this formula can also be used to calculate tumor volume assuming unit density 1 mg=1 mm^3 Percent inhibition or tumor growth inhibition (TGI) was calculated using the following formula: 1-[mean tumor value of treated/mean tumor value of control]×100. […]

Data set [3] can be described thus: Equilibrium solubility at varying pH (shake flask). It counts as physicochemical. To be noted: for solubility: 25 °C, thermodynamic from solid. As for the experimental part:
Solubility of the compounds was determined by the traditional shake flask method. Aliquots of solid compounds were mixed with an appropriate buffer of the desired pH and equilibrated by shaking at room temperature (˜25° C.) for 6-24 hours. Following aqueous buffers were used for the pH control: 0.1N HCl pH=1.2, 50 mM Lactate buffer pH=3.0, 50 mM Acetate buffer pH=5.0, and 100 mM Phosphate buffer pH 7.4. After equilibration, samples were filtered through a 0.45 um filter and analyzed by HPLC/UV against the calibration curves of standard solution.

The test system of data set [4] is A375. Put plainly: Cell growth inhibition assay (MTS). The format is cell-based. To be noted: Homo sapiens. The protocol:
(§1) Compounds of the present invention have been tested for activity against a variety of cancer cell lines. The ability of compounds to inhibit cell growth in this assay is correlated with the reduction of dehydrogenase enzyme activity found in metabolically active cells.
(§2) Materials: A large variety of cancer cells from ATCC were maintained at 37° C., 5% CO2 in DMEM media supplemented with 10% fetal bovine serum, penicillin/streptomycin and fungizone (Invitrogen). NCM460 (Incell), a normal colon epithelial cell line, and human mammary epithelial cells (Cambrex) were maintained at 37° C., 5% CO2 in DMEM and HEBM media (Cambrex), respectively.
(§3) Methods: Test compounds were dissolved and diluted to 300× in DMSO then diluted 1:40 in DMEM. Cells were seeded into 96-well tissue culture plates at 1-5×10^3 per well and cultured at 37° C. for 24 h. Cells were incubated with test compounds for 72 hours followed by incubation with tetrazolium compound (3-(4,5-dimethylthiazol-2-yl)-5-(3-carboxymethoxyphenyl)-2-(4-sulfophenyl)-2H-tetrazolium, inner salt; MTS) and the electron coupling reagent, phenazine methosulfate (PMS) for 4 hr. […] The measurement of the absorbance of the formazan was assessed using an ENVISION™ (Perkin Elmer) microplate reader at 492 nm. The calculated IC50 value is the concentration of the test compound that causes a 50% decrease in the absorbance.

Data set [5] concerns DLD-1. Put plainly: Cell growth inhibition assay (MTS). It counts as cell-based. To be noted: Homo sapiens. The protocol: as §1, §2, §3
The test system of data set [6] is SK-MEL-28. Put plainly: Cell growth inhibition assay (MTS). It counts as cell-based. To be noted: Homo sapiens. The protocol:
as §1, §2, §3

Data set [7] has as its system WM-266-4. Put plainly: Cell growth inhibition assay (MTS). Conditions: Homo sapiens. The format is cell-based. As for the experimental part:
as §1, §2, §3

The mark [8] stands for this setting: aqueous buffer (0.1N HCl), pH 1.2, simulated gastric fluid.

pIC50: −log10 of the molar value. Converted amounts (≈) assume the structure as drawn. “Also recorded” adds a separate entry of the source.

T1 sequence (P15056 whole entry V600E): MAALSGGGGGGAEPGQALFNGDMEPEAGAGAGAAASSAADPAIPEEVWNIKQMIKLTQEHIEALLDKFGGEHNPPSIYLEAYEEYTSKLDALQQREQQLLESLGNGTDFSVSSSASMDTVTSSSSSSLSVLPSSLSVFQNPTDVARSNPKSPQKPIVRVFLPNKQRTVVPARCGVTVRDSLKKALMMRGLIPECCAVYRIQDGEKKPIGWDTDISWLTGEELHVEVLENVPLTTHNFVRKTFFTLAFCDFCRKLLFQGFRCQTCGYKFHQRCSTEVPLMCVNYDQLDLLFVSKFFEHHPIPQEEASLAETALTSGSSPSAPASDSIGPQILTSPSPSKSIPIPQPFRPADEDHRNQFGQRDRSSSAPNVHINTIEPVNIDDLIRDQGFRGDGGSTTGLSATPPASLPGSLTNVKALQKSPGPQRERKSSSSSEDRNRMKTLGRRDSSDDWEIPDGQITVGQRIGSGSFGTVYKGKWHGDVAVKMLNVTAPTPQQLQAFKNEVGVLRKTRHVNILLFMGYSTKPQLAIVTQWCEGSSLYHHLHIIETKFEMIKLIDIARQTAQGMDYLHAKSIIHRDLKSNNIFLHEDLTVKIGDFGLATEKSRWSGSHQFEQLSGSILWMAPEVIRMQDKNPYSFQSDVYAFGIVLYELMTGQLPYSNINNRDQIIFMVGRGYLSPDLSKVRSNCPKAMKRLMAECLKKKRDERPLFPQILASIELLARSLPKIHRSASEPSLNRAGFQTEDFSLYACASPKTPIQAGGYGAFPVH

Take `Cn1ccc(S(=O)(=O)N2CCC[C@@H](Nc3nccc(-c4c(-c5cccc(OCOP(=O)(O)O)c5)nc5occn45)n3)C2)n1` [Compound 19, (R)-(3-(5-(2-(1-(1-methyl-1H-pyrazol-3-ylsulfonyl)piperidin-3-ylamino)pyrimidin-4-yl)imidazo[2,1-b]oxazol-6-yl)phenoxy)methyl dihydrogen phosphate]: the pIC50 (usually −log10 of the IC50, conventionally taken in molar units) in data set [1] was 5.53. Besides, in data set [2] (IP at 300 mg/kg, FIG. 3, 300 mg/kg), the “anti-tumor activity in a xenograft cancer model” value is “retain their anti-tumor activity; also recorded: equally effective”. The solubility (commonly how much of the substance goes into solution per volume) in data set [3] (aqueous buffer (50 mM acetate buffer), aqueous buffer, pH 5.0) is greater than 13000 µg/mL; in data set [3] (aqueous buffer (100 mM phosphate buffer), pH 7.4, aqueous buffer), greater than 300000 µg/mL; in data set [3] (setting [8]), less than 1300 µg/mL. Further, the “solubility in aqueous solution compared with compound 17” value in data set [3] (at or near biologically relevant pH) was “dramatically more soluble”. The GI50 (usually the concentration at which growth is held to half of that of the control) came to 300 nM in data set [4] (A-375, A375, skin); 280 nM in data set [4] (A-375, A-375, melanoma); 19000 nM in data set [5] (DLD-1, colon); 1700 nM in data set [6] (SK-MEL-28, malignant melanoma); 130 nM in data set [7] (WM 266-4, WM-266.4, melanoma).

Turning to `Cn1ccc(S(=O)(=O)N2CCC[C@@H](Nc3nccc(-c4c(-c5cccc(O)c5)nc5occn45)n3)C2)n1` [Compound 17, (R)-3-(5-(2-(1-(1-methyl-1H-pyrazol-3-ylsulfonyl)piperidin-3-ylamino)pyrimidin-4-yl)imidazo[2,1-b]oxazol-6-yl)phenol], the pIC50 in data set [1] was 8.10. For the same compound, the “anti-tumor activity in a xenograft cancer model” value in data set [2] (IP at 160 mg/kg, FIG. 3, 160 mg/kg) is “retain their anti-tumor activity; also recorded: equally effective”. Besides, the solubility in data set [3] (aqueous buffer (50 mM lactate buffer), aqueous buffer, pH 3.0) is 10 µg/mL (≈ 19.2 µM); in data set [3] (setting [8]), 1050 µg/mL (≈ 2020 µM). Moreover, the Aqueous solubility result in data set [3] (pH 5.0) and in data set [3] (pH 7.4) was “insoluble” in each case. Also, the GI50 in data set [4] (A-375, 72 h, A375, 72 hours) is less than 0.4 nM; in data set [5] (DLD-1, 72 hours), 12100 nM; in data set [6] (SK-MEL-28, 72 hours), 97 nM; in data set [7] (WM-266-4, 72 hours), 0.6 nM.
